Source: patent EP2326172B1, “ANTIFUNGAL AGENTS” (Scynexis, Inc., priority 2008, dated 2010)

Biological target: T1, glucan synthase (GS) (Candida albicans, UniProt O13428)
T1 construct: Extraction of GS activity from membranes was performed at a protein concentration of 5 mg/mL in extraction buffer; endogenous in cells; host or cells: Candida albicans MY1055 (membrane fraction, detergent extract, product entrapment)
Assay: Glucan synthase inhibition (polymerization assay, 96-well, 3H-UDPG incorporation)
Assay type: biochemical
Conditions: glucan synthase prepared from Candida albicans MY1055; 60 min incubation at 22°C; read-out: Candida Albicans GS IC50 (ng/mL) (converted)
Procedure: The in vitro evaluation of glucan synthase inhibitory activity of compounds was measured in a polymerization assay in 96-well format. Each well contained 100 µL of ^3H-UDPG at 0.5 mM (6000 to 8000 dpm/nmol), 50 mM HEPES pH 7.5 (Sigma), 10% w/v glycerol (Sigma), 1.5 mg/mL bovine serum albumin (Sigma A 9647. Lot 44H0190), 25 mM KF (Fisher), 1 mM EDTA (Gibco ULTRAPURE), 25 µM GTP-γ-S, enzyme sufficient to give 3 to 6 nmoles incorporation during the 60 min incubation at 22°C, and test compound added from wells in 3-fold serial dilutions in 100% DMSO (1 µL/well). The reaction was stopped by the addition of 100 µL of 20% trichloroacetic acid. Plates were chilled for a minimum of 10 min, and precipitated glucan collected by filtration on GF/C plates (Packard UNIFILTER®-96), washed with 5 cycles of water (about 1 mL/well each cycle) using a Packard FILTERMATE HARVESTER. 40 µL/well scintillation fluid (Packard ULTIMA GOLD TM-XR) was added and the sealed plates counted in a WALLAC BETA counter in top-counting mode at an efficiency of approximately 40%.
Stock solutions were stored at 10 mg/mL in DMSO at -20°C. For each new enzyme preparation, the initial titration performed started at 1 mg/mL, which was prepared by making a 10-fold dilution in DMSO (5 µL to 50 µL). 40 µL of this stock was placed in column 12 of a round-bottomed 96-well microtiter plate. 40 µL DMSO was added to columns 1 to 11 in the same row and ten 3-fold serial dilutions performed, by transferring 20 µL from column 12 to column 11 etc., with 4 mixings before each transfer. No test compound was transferred to from column 2 to column 1. Duplicate aliquots of 1 µL of all 12 dilutions were then transferred to the side walls of a 96-well Bioblock 1.1 mL plate (Fisher brand) to create two rows.
Graphs of the primary data were created in PRISM software (the average of two determinations) using PRISM's curve fitting program (sigmoidal dose response non-linear regression). The amount of compound required to inhibit glucan synthase activity by 50% in this assay (IC50 - ng/mL) was calculated.
Routine analysis was performed with glucan synthase (GS) prepared from Candida albicans MY1055 by the following procedure: MY1055 was grown in 10 liters YPD medium (10 g yeast extract, 20 g tryptone, 20 g glucose per liter) with vigorous shaking at 30°C, to early stationary phase. Cells were harvested by centrifugation, the pellet was washed and frozen at -70°C until breakage. Thawed pellets were shaken with an equal volume of breakage buffer (50 mM HEPES pH 7.4, 10% glycerol, 1 mM EDTA, 1 mM PMSF, 1mM DTT) and 4 times their weight of 0.5 mm acid washed glass beads for 2 hours at 4°C. Extent of breakage was assessed visually at 40x magnification. After low speed centrifugation to remove cell debris, the supernatant was centrifuged at 100,000 x g for 60 min. to separate membranes plus ribosomes from cytoplasmic components. Membranes were further washed two additional times with breakage buffer using the same centrifugation conditions and finally suspended in breakage buffer at 25 to 30 mg/mL protein (Biorad) for storage at -70°C. Extraction of GS activity from membranes was performed at a protein concentration of 5 mg/mL in extraction buffer (50mM NaPO4 pH 7.5, 0.1 M KCl, 0.1M Na citrate, 20% glycerol, 5 µM GTP-γ-S, 1mM DTT, 1 mM PMSF, 3 µg/mL pepstatin) plus 0.25% W1 by gentle mixing at 4°C for 60 min, followed by centrifugation at 100,000 x g for 60 min. After centrifugation, clear supernatant was removed from a pellet consisting of a hard layer usually with small amounts of gelatinous unextracted membranes above it.
Trapping was initiated immediately by 5-fold dilution in trapping buffer (50 mM HEPES pH 7.5, 10 mM KF, 1 mM EDTA, 2 mg/mL BSA) plus 2.5 mM UDPG and 10µM GTP-γ-S. After incubation at 25°C for 60 to 90 minutes, glucan was harvested by low speed centrifugation (3,000 x g, 10 min). […]

T1 sequence (O13428 1-1897): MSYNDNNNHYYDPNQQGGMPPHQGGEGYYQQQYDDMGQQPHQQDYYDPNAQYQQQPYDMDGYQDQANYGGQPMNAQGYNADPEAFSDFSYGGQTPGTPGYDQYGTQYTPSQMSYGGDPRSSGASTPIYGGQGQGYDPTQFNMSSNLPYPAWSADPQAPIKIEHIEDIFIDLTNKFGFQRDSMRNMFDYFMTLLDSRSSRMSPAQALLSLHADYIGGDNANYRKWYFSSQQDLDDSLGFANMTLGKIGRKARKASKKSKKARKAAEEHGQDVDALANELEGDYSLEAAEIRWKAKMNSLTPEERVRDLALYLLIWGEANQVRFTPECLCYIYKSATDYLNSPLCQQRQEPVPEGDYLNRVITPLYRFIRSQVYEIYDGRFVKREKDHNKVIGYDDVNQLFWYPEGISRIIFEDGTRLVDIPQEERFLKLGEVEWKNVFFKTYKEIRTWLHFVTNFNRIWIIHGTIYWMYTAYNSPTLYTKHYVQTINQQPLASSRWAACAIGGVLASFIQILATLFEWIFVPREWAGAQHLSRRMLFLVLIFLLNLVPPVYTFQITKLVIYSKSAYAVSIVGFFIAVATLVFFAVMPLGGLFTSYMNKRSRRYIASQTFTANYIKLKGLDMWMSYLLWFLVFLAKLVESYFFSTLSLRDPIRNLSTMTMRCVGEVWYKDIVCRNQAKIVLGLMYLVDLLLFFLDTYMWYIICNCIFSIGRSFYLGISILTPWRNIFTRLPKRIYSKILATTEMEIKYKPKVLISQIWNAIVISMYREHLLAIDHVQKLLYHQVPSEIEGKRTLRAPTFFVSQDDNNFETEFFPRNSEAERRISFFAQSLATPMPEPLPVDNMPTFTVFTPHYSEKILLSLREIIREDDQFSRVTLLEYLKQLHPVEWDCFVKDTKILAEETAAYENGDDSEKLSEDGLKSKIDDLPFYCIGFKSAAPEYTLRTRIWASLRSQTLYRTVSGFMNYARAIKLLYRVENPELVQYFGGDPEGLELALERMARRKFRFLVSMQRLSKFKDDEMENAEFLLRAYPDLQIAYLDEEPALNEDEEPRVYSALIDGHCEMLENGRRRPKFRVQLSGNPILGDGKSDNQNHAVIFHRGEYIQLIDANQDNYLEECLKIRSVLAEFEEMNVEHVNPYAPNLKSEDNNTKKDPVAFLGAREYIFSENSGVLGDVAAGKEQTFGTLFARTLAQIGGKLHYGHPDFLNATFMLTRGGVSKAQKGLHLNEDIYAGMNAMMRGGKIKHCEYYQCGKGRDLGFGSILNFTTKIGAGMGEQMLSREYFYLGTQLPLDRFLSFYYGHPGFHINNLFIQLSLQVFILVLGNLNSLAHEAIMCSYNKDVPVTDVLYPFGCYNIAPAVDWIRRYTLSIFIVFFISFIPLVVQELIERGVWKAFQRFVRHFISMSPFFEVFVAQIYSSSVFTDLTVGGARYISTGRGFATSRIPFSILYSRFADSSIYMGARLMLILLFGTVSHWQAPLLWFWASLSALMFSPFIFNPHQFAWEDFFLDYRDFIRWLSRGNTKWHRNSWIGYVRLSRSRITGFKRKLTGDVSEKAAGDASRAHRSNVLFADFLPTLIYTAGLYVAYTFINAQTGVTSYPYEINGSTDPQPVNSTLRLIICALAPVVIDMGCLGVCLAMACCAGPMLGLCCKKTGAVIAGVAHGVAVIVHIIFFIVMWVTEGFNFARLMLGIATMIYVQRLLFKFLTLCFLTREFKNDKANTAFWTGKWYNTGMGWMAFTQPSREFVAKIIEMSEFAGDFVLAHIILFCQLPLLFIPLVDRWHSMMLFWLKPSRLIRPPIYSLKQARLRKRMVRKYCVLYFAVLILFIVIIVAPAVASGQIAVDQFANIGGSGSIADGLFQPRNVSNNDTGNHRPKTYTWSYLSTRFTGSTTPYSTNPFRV
T1 sequence (O42825 1-195 partner limits assumed): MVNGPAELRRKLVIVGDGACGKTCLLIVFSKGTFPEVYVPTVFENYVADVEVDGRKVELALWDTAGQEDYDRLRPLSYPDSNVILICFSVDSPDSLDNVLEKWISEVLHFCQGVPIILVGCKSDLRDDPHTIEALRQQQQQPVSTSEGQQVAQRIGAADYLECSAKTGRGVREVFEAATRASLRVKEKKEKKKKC

SMILES	IC50 [nM]
CNC(=O)c1ncnn1[C@@H]1C[C@@]23COC[C@](C)([C@@H]2CC[C@H]2C3=CC(=O)[C@@]3(C)[C@H](C(=O)O)[C@@](C)([C@H](C)C(C)C)CC[C@]23C)[C@H]1OC[C@](C)(NC)C(C)C [Example 40, (1S,4aR,6aS,7R,8R,10aR,10bR,12aR,14R,15R)-15-[[(2R)-2,3-dimethyl-2-(methylamino)butyl]oxy]-8-[(1R)-1,2-dimethylpropyl]-14-[5-[(methylamino)carbonyl]-1H-1,2,4-triazol-1-yl]-1,6,6a,7,8,9,10,10a,10b,11,12,12a-dodecahydro-1,6a,8,10a-tetramethyl-6-oxo-4H-1,4a-propano-2H-phenanthro[1,2-c]pyran-7-carboxylic acid]	24.9
CCN[C@@](C)(CO[C@H]1[C@H](n2ncnc2C(N)=O)C[C@@]23COC[C@]1(C)[C@@H]2CC[C@H]1C3=CC[C@@]2(C)[C@H](C(=O)O)[C@@](C)([C@H](C)C(C)C)CC[C@]12C)C(C)C [Example 43, (1S,4aR,6aS,7R,8R,10aR,10bR,12aR,14R,15R)-14-[5-(aminocarbonyl)-1H-1,2,4-triazol-1-yl]-8-[(1R)-1,2-dimethylpropyl]-15-[[(2R)-2-(ethylamino)-2,3-dimethylbutyl]oxy]-1,6,6a,7,8,9,10,10a,10b,11,12,12a-dodecahydro-1,6a,8,10a-tetramethyl-4H-1,4a-propano-2H-phenanthro[1,2-c]pyran-7-carboxylic acid]	15.5
CC(C)[C@@H](C)[C@@]1(C)CC[C@]2(C)[C@H]3CC[C@@H]4[C@@]5(COC[C@@]4(C)[C@@H](OC[C@](C)(N)C(C)(C)C)[C@H](n4ncnc4-c4ccnnc4)C5)C3=CC[C@@]2(C)[C@@H]1C(=O)O [Example 202, (1S,4aR,6aS,7R,8R,10aR,10bR,12aR,14R,15R)-15-[[(2R)-2-amino-2,3,3-trimethylbutyl]oxy]-8-[(1R)-1,2-dimethylpropyl]-14-[5-(4-pyridazinyl)-1H-1,2,4-triazol-1-yl]-1,6,6a,7,8,9,10,10a,10b,11,12,12a-dodecahydro-1,6a,8,10a-tetramethyl-4H-1,4a-propano-2H-phenanthro[1,2-c]pyran-7-carboxylic acid]	0.274
CC(C)NC(=O)c1ncnn1[C@@H]1C[C@@]23COC[C@](C)([C@@H]2CC[C@H]2C3=CC[C@@]3(C)[C@H](C(=O)O)[C@@](C)([C@H](C)C(C)C)CC[C@]23C)[C@H]1OC[C@](C)(N)C(C)(C)C [Example 93, (1S,4aR,6aS,7R,8R,10aR,10bR,12aR,14R,15R)-15-[[(2R)-2-amino-2,3,3-trimethylbutyl]oxy]-8-[(1R)-1,2-dimethylpropyl]-14-[5-[[(1-methylethyl)amino]carbonyl]-1H-1,2,4-triazol-1-yl]-1,6,6a,7,8,9,10,10a,10b,11,12,12a-dodecahydro-1,6a,8,10a-tetramethyl-4H-1,4a-propano-2H-phenanthro[1,2-c]pyran-7-carboxylic acid]	20.3
CNC1(CO[C@H]2[C@H](n3ncnc3C(N)=O)C[C@@]34COC[C@]2(C)[C@@H]3CC[C@H]2C4=CC[C@@]3(C)[C@H](C(=O)O)[C@@](C)([C@H](C)C(C)C)CC[C@]23C)CCOCC1 [Example 46, (1S,4aR,6aS,7R,8R,10aR,10bR,12aR,14R,15R)-14-[5-(aminocarbonyl)-1H-1,2,4-triazol-1-yl]-8-[(1R)-1,2-dimethylpropyl]-15-[[tetrahydro-4-(methylamino)-2H-pyran-4-yl]methoxy]-1,6,6a,7,8,9,10,10a,10b,11,12,12a-dodecahydro-1,6a,8,10a-tetramethyl-4H-1,4a-propano-2H-phenanthro[1,2-c]pyran-7-carboxylic acid]	8.45
CC(C)[C@@H](C)[C@@]1(C)CC[C@]2(C)[C@H]3CC[C@@H]4[C@@]5(COC[C@@]4(C)[C@@H](OC[C@](C)(N)C(C)C)[C@H](n4ncnc4-c4ccncn4)C5)C3=CC[C@@]2(C)[C@@H]1C(=O)O [Example 190, (1S,4aR,6aS,7R,8R,10aR,10bR,12aR,14R,15R)-15-[[(2R)-2-amino-2,3-dimethylbutyl]oxy]-8-[(1R)-1,2-dimethylpropyl]-14-[5-(4-pyrimidinyl)-1H-1,2,4-triazol-1-yl]-1,6,6a,7,8,9,10,10a,10b,11,12,12a-dodecahydro-1,6a,8,10a-tetramethyl-4H-1,4a-propano-2H-phenanthro[1,2-c]pyran-7-carboxylic acid]	4.18
